{
  "source": "patent US20260240842A1",
  "about": "“METHODS TO PREVENT THERAPY RESISTANCE IN MELANOMA VIA BLOCKING GENOMIC INSTABILITY” (THE REGENTS OF THE UNIVERSITY OF CALIFORNIA, priority 2022, published 2026)",
  "test_system": "M229 and M245 cell lines",
  "assay": "WGS of short-term treated cell lines: treatment-specific ecDNA+CGR genomic spans",
  "type": "cell-based, human",
  "conditions": "co-treatment with MAPKi for 10 to 11 days, FIG. 5H",
  "text": "FIGS. 5A-5H. Resistance-driver ecDNAs and HSRs dynamically track with resistance and DNA-PKi prevents size-expansion of ecDNAs and CGRs early on MAPKi treatment. FIGS. 5A to 5C, Metaphase DNA-FISH of paired parental and acquired resistant BRAF^V600MUT (5A and 5B) or NRAS^Q61MUT (5C) cell lines without or with drug withdrawal showing ecDNA- or HSR-amplicons harboring BRAF, RAF1 or NRAS. Left, representative images; right, quantifications per cell. Ruler, 15 μm. P values (Unpaired two-tailed Student's t-test): *, p<0.05; **, p<0.01; ***, p<0.001. […] FIG. 5G: Representative images (left) and quantification (right) of metaphase DNA-FISH showing HSR harboring BRAF in M249 cells treated with vehicle or BRAFi+MEKi, with or without NU7026 and/or ABT888 for 31 days. […] FIG. 5H: Average total genomic spans of treatment-specific ecDNAs+CGRs in M229 and M245 cell lines (background ecDNA+CGR spans detected in vehicle-treated cells were filtered). […]\nGenomic DNA (gDNA) and total RNA were extracted from frozen tumor tissue preserved in RNALater or snap-frozen tumor tissue using the QIAGEN AllPrep DNA/RNA Mini Kit and the Ambion mirVana miRNA Isolation Kit. […] After library construction, indexed libraries were quantified for equal molar pooling and paired-end sequenced with a read length of 2×150 bp on the Illumina NovaSeq 6000 S4 platform. […]",
  "data": [
    {"smiles": "O=c1cc(N2CCOCC2)oc2c1ccc1ccccc12", "note": "[NU7026]", "values": [
      {"measurement": "MAPKi-elicited treatment-specific ecDNA+CGR genomic spans", "result": "blunted the expansion of ecDNA+CGR genomic spans in both cell lines"}
    ]}
  ]
}
